Measured values reported in publication PMC12262901, “Natural product-mediated reaction hijacking mechanism validates Plasmodium aspartyl-tRNA synthetase as an antimalarial drug target” (PLOS Pathogens, 2025).

What was measured:
[1] = biological target: T1, native length PfAspRS (49-626) (Plasmodium falciparum, UniProt Q8I2B1); assay: differential scanning fluorimetry after […] h incubation with substrates; assay type: binding; conditions: AMS (10 or 50 µM) with 10 µM ATP, 20 µM L-Asp, 80 µM E. coli tRNA, 5 mM MgCl2, pH 8, 37 °C; reaction hijacking, covalent Asp-AMS adduct made by the enzyme; value is the Tm, not the shift
T1 construct: gene PF3D7_0102900; residues 49-626, cytoplasmic, codon-optimised, expressed in E. coli BL21(DE3), N-terminal His-tag removed with TEV protease, homodimer; observed mass 67831 Da
T1 sequence (Q8I2B1 49-626): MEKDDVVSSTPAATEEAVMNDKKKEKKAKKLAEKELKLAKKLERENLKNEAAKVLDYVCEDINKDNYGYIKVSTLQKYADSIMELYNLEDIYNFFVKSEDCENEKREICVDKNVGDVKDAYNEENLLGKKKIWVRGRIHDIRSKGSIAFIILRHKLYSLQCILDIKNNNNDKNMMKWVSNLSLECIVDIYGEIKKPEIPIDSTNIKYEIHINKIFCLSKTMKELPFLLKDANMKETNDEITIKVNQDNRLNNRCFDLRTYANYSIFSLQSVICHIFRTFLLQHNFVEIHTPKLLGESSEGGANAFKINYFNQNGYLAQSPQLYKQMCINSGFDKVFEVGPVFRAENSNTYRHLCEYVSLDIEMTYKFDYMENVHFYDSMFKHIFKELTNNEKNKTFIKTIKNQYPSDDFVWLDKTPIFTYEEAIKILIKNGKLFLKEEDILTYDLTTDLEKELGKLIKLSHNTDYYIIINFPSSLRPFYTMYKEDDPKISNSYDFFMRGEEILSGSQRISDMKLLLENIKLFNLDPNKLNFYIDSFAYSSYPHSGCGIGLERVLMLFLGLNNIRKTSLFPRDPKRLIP

[2] = biological target: T2, native length PvAspRS (51-631) (Plasmodium vivax, UniProt A5K9Y2); assay: as above; assay type: binding; conditions: AMS (10 or 50 µM) with 10 µM ATP, 20 µM L-Asp, 80 µM E. coli tRNA, 5 mM MgCl2, pH 8, 37 °C; reaction hijacking, covalent Asp-AMS adduct made by the enzyme; value is the Tm, not the shift
T2 construct: gene PVX_081610; residues 51-631, codon-optimised, expressed in E. coli BL21(DE3), N-terminal His-tag removed with TEV protease, homodimer
T2 sequence (A5K9Y2 51-631): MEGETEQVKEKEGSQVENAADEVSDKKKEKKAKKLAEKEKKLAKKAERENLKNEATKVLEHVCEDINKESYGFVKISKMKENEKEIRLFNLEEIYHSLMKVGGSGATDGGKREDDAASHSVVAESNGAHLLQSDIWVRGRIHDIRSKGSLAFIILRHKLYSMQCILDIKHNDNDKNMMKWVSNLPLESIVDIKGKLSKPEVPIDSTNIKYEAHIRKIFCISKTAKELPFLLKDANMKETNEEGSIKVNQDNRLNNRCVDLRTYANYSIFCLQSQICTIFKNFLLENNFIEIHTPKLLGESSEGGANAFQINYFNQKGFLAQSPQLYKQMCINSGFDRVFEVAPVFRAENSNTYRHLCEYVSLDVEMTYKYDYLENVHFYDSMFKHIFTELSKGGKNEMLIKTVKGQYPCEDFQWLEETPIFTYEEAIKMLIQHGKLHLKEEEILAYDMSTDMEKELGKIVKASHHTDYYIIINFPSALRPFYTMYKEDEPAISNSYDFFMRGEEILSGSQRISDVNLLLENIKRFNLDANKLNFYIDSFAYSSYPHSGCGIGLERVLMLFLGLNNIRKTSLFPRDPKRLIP

[3] = biological target: T2, native length PvAspRS (51-631); assay: Kinase-Glo ATP consumption assay; assay type: biochemical; conditions: 10 µM ATP, 200 µM L-Asp, 80 µM E. coli tRNA, 5 mM MgCl2, pyrophosphatase, pH 8, 37 °C
[4] = biological target: T1, native length PfAspRS (49-626); assay: Kinase-Glo ATP consumption assay; assay type: biochemical; conditions: 10 µM ATP, 200 µM L-Asp, 80 µM E. coli tRNA, 5 mM MgCl2, pyrophosphatase, pH 8, 37 °C
[5] = biological target: T3, truncated PvAspRS (96-631) (Plasmodium vivax, UniProt A5K9Y2); assay: Kinase-Glo ATP consumption assay; assay type: biochemical; conditions: 10 µM ATP, 200 µM L-Asp, 80 µM E. coli tRNA, 5 mM MgCl2, pyrophosphatase, pH 8, 37 °C
T3 construct: gene PVX_081610; residues 96-631, lacks N-terminal extension, pETM-41 vector, expressed in E. coli BL21(DE3), tag removed with TEV protease, homodimer
T3 sequence (A5K9Y2 96-631): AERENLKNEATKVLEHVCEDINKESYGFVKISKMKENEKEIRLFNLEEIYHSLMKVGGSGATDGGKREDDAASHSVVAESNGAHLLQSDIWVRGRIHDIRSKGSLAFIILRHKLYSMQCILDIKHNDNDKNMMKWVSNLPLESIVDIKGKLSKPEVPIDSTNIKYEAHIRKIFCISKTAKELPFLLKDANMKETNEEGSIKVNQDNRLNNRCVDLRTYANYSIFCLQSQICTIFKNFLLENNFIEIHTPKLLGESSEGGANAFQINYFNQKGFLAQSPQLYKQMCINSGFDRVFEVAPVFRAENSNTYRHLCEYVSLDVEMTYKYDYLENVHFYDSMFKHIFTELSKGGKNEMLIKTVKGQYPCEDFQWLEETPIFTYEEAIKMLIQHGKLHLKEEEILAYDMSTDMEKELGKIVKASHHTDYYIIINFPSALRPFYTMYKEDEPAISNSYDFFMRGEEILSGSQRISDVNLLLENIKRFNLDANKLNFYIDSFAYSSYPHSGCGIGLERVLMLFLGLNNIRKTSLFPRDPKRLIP

[6] = biological target: T4, HsAspRS (1-501) (Homo sapiens, UniProt P14868); assay: Kinase-Glo ATP consumption assay; assay type: biochemical; conditions: 10 µM ATP, 200 µM L-Asp, 160 µM E. coli tRNA, 5 mM MgCl2, pyrophosphatase, pH 8, 37 °C
T4 construct: gene DARS1; full-length 1-501, codon-optimised, expressed in E. coli BL21(DE3), His-tag removed with TEV protease, homodimer
T4 sequence (P14868 1-501): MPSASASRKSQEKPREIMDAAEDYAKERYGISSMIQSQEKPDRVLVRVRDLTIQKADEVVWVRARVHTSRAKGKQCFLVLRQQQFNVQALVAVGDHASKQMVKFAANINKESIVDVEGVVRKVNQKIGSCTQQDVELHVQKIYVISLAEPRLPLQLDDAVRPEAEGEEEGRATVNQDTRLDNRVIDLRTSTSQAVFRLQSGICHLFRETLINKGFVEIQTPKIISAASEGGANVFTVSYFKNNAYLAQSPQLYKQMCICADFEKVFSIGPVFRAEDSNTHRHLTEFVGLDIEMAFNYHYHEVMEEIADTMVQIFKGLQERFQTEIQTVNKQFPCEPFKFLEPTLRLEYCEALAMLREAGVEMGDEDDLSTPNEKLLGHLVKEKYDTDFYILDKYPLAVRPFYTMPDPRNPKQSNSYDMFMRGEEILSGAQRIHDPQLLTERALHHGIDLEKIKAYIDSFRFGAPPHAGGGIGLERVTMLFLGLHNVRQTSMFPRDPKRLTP

[7] = biological target: T3, truncated PvAspRS (96-631); assay: X-ray crystal structure, […] Å; assay type: binding; conditions: active site, both chains; crystallised with ATP and L-Asp
[8] = biological target: T3, truncated PvAspRS (96-631); assay: X-ray crystal structure, […] Å; assay type: binding; conditions: active site, both chains; Mg2+ in chain B
[9] = biological target: T1, native length PfAspRS (49-626); assay: differential scanning fluorimetry; assay type: binding; conditions: 2 or 5 µM synthetic Asp-DACM, pH 8, 37 °C, 3 h
[10] = biological target: T4, HsAspRS (1-501); assay: differential scanning fluorimetry; assay type: binding; conditions: 2 or 5 µM synthetic Asp-DACM, pH 8, 37 °C, 3 h
[11] = biological target: T3, truncated PvAspRS (96-631); assay: X-ray crystal structure, […] Å; assay type: binding; conditions: active site of catalytic domain, both chains; possible radiation damage at the 2-Cl
[12] = biological target: T2, native length PvAspRS (51-631); assay: differential scanning fluorimetry; assay type: binding; conditions: 2 or 5 µM synthetic Asp-DACM, pH 8, 37 °C, 3 h
[13] = biological target: T2, native length PvAspRS (51-631); assay: differential scanning fluorimetry after […] h incubation with substrates; assay type: binding; conditions: read-out: dTm
[14] = biological target: native length PfAspRS (49-626), Plasmodium falciparum cytoplasmic aspartyl tRNA synthetase (P. falciparum); assay: SEC; gel filtration after removal of the His-tags; 25 mM or 50 mM Tris-HCl pH 8.0, 150 mM NaCl, 0.5 or 1 mM TCEP
[15] = biological target: native length PfAspRS (49-626), Plasmodium falciparum cytoplasmic aspartyl tRNA synthetase (P. falciparum); assay: AUC; sedimentation velocity, c(s) model; PfAspRS at 1, 0.6 and 0.2 mg/mL in 50 mM Tris pH 8.0, 150 mM NaCl, 1 mM TCEP; 200,000 g, 20°C, absorbance at 290 nm
[16] = biological target: native length PvAspRS (51-631), Plasmodium vivax aspartyl tRNA synthetase (P. vivax); assay: SEC; gel filtration after removal of the His-tags; 25 mM or 50 mM Tris-HCl pH 8.0, 150 mM NaCl, 0.5 or 1 mM TCEP
[17] = biological target: T5, full-length HsAspRS (1-501), human aspartyl tRNA synthetase (human), P14868; assay: as above; conditions: remark: other sources report otherwise
T5 chain: T4 sequence (P14868 1-501)

`Nc1ncnc2c1ncn2[C@@H]1O[C@H](COS(N)(=O)=O)[C@@H](O)[C@H]1O` [AMS] showed a Tm [1] of 57.0 °C and a Tm [2] of 59.5 °C.

In the case of `Nc1ncnc2c1ncn2[C@@H]1O[C@H](COP(=O)(O)OP(=O)(O)OP(=O)(O)O)[C@@H](O)[C@H]1O` [ATP], the “Kinase-Glo ATP consumption assay” value [3] is reported as “Addition of EctRNA substantively increased the level of ATP consumption”, the “Kinase-Glo ATP consumption assay” value [4] is reported as “Addition of EctRNA substantively increased the level of ATP consumption” and the “Kinase-Glo ATP consumption assay” value [5] is reported as “marked increase in ATP consumption in the presence of EctRNA”. The “Kinase-Glo ATP consumption assay” value [6] was “Addition of EctRNA substantively increased the level of ATP consumption”.

With `Nc1ncnc2c1ncn2[C@@H]1O[C@H](COP(=O)(O)OC(=O)[C@@H](N)CC(=O)O)[C@@H](O)[C@H]1O` [Asp-AMP] the “X-ray crystal structure, 2.1 Å” value [7] was “We also solved the structure of PvAspRS with the natural intermediate, Asp-AMP”.

With `Nc1ncnc2c1ncn2[C@@H]1O[C@H](COS(=O)(=O)NC(=O)[C@@H](N)CC(=O)O)[C@@H](O)[C@H]1O` [Asp-AMS, 5′-O-(N-L-aspartate)-sulfamoyl-adenosine] the “X-ray crystal structure, 1.8 Å” value [8] was “We also solved the structure of PvAspRS with bound synthetic Asp-AMS”.

In the case of `Nc1nc(Cl)nc2c1ncn2[C@@H]1O[C@H](COS(=O)(=O)NC(=O)[C@@H](N)CC(=O)O)[C@@H](O)[C@H]1O` [Asp-DACM, 2-chloro-5′-O-[N-(L-aspartyl)-sulfamoyl] adenosine], the dTm [9] is reported as “synthetic Asp-DACM increased the Tm values of PfAspRS, PvAspRS and HsAspRS”, the dTm [10] is reported as “synthetic Asp-DACM increased the Tm values of PfAspRS, PvAspRS and HsAspRS” and the “X-ray crystal structure, 2.4 Å” value [11] is reported as “We solved the structure of PvAspRS with bound synthetic Asp-DACM”. For the same molecule, the dTm [12] was “synthetic Asp-DACM increased the Tm values of PfAspRS, PvAspRS and HsAspRS”.

`Nc1nc(Cl)nc2c1ncn2[C@@H]1O[C@H](COS(N)(=O)=O)[C@@H](O)[C@H]1O` [DACM, 5′-O-sulfamoyl-2-chloroadenosine] was tested, and the ΔTm at 10 µM [13] was 19 °C.

In the case of “native length PfAspRS (49-626), Plasmodium falciparum cytoplasmic aspartyl tRNA synthetase (enzyme)”, the stoichiometry N [14] is reported as 2 and the stoichiometry N [15] is reported as 2.

In the case of “native length PvAspRS (51-631), Plasmodium vivax aspartyl tRNA synthetase (enzyme)”, the stoichiometry N [16] is reported as 2.

B1: full-length HsAspRS (1-501), human aspartyl tRNA synthetase, P14868-1 1-501 (enzyme)
chain: T4 sequence (P14868 1-501)
B1 gave a stoichiometry N [17] of 2.
